Like-named read-outs stand apart in the source and are kept apart here.
Key:
[1] = tested on: K-562; experiment: Calcein AM cytotoxicity, K-562; type: cell-based; details: Homo sapiens, K562, 72 h, read-out: IC 50, K-562
Excerpt: (§1) One of the parameters used, as the basis for cytotoxicity assays, is the metabolic activity of viable cells. For example, a microtiter assay, which uses the Calcein AM, is now widely used to quantitate cell proliferation and cytotoxicity. For instance, this assay is used in drug screening programs and in chemosensitivity testing. Because only metabolically active cells cleave Calcein AM, these assays detect viable cells exclusively. The quantity of reduced Calcein AM corresponds to the number of vital cells in the culture.
(§2) The cells were maintained in Nunc/Corning 80 cm^2 plastic tissue culture flasks and cultured in cell culture medium (DMEM with 5 g/l glucose, 2 mM glutamine, 100 U/ml penicillin, 100 μg/ml streptomycin, 10% fetal calf serum and sodium bicarbonate).
(§3) The cell suspensions that were prepared and diluted according to the particular cell type and the expected target cell density (2.500-30.000 cells per well based on cell growth characteristics) were added by pipette (80 μl) into 96/well microtiter plates. Inoculates were allowed a pre-incubation period of 24 hours at 37° C. and 5% CO2 for stabilisation. Four-fold dilutions of the intended test concentration were added at time zero in 20 μl aliquots to the microtiter plate wells. Usually, test compound was evaluated at six 4-fold dilutions. […] All drug concentrations were examined in duplicates. Incubations of cells with the test compounds lasted for 72 hours at 37° C., in 5% CO2 atmosphere and 100% humidity. At the end of incubation period, the cells were assayed by using the Calcein AM. Ten microliters of the stock solution were pipetted into each well and incubated further for 1 hours. Fluorescence (FD) was measured with the Labsystem FIA Reader Fluoroscan Ascent (UK).

[2] = tested on: breast carcinoma cell line MCF-7; experiment: Calcein AM cytotoxicity, MCF7; type: cell-based, human; details: read-out: IC 50, MCF7
Excerpt: as §1, §2, §3

[3] = tested on: B16-F0 melanoma; experiment: Calcein AM cytotoxicity, B16-F0; type: cell-based; details: Mus musculus, B16F0, 72 h, read-out: IC 50, B16-F0
Excerpt: as §1
(§4) Human T-lymphoblastic leukemia cell line CEM; promyelocytic HL-60 and monocytic U937 leukemias; breast carcinoma cell lines MCF-7, BT549, MDA-MB-231; glioblastoma U87MG cells; cervical carcinoma cells HELA; sarcoma cells U2OS and Saos2; hepatocellular carcinoma HepG2; mouse fibroblasts NIH3T3; mouse immortalized bone marrow macrophages B2.4 and B10A.4; P388D1 and L1210 leukemia; B16 and B16F10 melanomas were used for routine screening of compounds. The cells were maintained in Nunc/Corning 80 cm^2 plastic tissue culture flasks and cultured in cell culture medium (DMEM with 5 g/l glucose, 2 mM glutamine, 100 U/ml penicillin, 100 μg/ml streptomycin, 10% fetal calf serum and sodium bicarbonate).
(§5) The cell suspensions that were prepared and diluted according to the particular cell type and the expected target cell density (2.500-30.000 cells per well based on cell growth characteristics) were added by pipette (80 μl) into 96/well microtiter plates. Inoculates were allowed a pre-incubation period of 24 hours at 37° C. and 5% CO2 for stabilisation. Four-fold dilutions of the intended test concentration were added at time zero in 20 μl aliquots to the microtiter plate wells. Usually, test compound was evaluated at six 4-fold dilutions. In routine testing, the highest well concentration was […], but it can be the matter of change dependent on the agent. All drug concentrations were examined in duplicates. Incubations of cells with the test compounds lasted for 72 hours at 37° C., in 5% CO2 atmosphere and 100% humidity. At the end of incubation period, the cells were assayed by using the Calcein AM. Ten microliters of the stock solution were pipetted into each well and incubated further for 1 hours. Fluorescence (FD) was measured with the Labsystem FIA Reader Fluoroscan Ascent (UK). The tumour cell survival (GI50) was calculated using the following equitation: TCS═(FDdrug exposed well/mean FDcontrol wells)×100%. The GI50 value, the drug concentration lethal to 50% of the tumour cells, was calculated from the obtained dose response curves (FIG. 1).

[4] = tested on: T-lymphoblastic leukemia cell line CEM; experiment: Calcein AM cytotoxicity, CEM; type: cell-based, human
Excerpt: as §1, §2, §3

[5] = tested on: promyelocytic HL-60 leukemia; experiment: Calcein AM cytotoxicity, HL60; type: cell-based, human; details: read-out: IC 50, HL60
Excerpt: as §1, §2, §3

[6] = tested on: human diploid fibroblasts (HCA cells); experiment: Senescence, beta-galactosidase staining of human diploid fibroblasts; type: cell-based
Experimental: In this example, human diploid fibroblasts (HCA cells of various passage levels: passage 25—designated HCA25; passage 45—designated HCA45; passage 80—designated HCA80) were stained for β-galactosidase activity. The medium used for cell cultivation was removed, the cells were washed twice in […], and fixed in 2-3 ml of fixing solution comprised of a 2% formaldehyde and 0.2% glutaraldehyde in PBS. The cells were incubated at room temperature for 5 minutes, then washed twice with PBS. The cells were subsequently incubated at 37° C. (without CO2) for 1 to 16 hours in 2-3 ml of a solution comprising potassium ferricyanide (5 mM), potassium ferrocyanide (5 mM), MgCl2 (2 mM), X-gal (5-bromo-4-chloro-3-indolyl-β-D-galactopyranoside) (1 mg/ml), in citric/phosphate buffer, pH 6.0). […] In this experiment, senescent cells, but not other cells were stained blue due to the action of β-galactosidase on the substrate (FIG. 4).

[7] = tested on: tobacco callus Nicotiana tabacum L. cv. Wisconsin 38; experiment: Cytokinin-dependent tobacco callus growth; type: cell-based; details: fresh callus weight at the concentration with highest activity
Experimental: Cytokinin-dependent tobacco callus Nicotiana tabacum L. cv. Wisconsin 38 was maintained at 25° C. in darkness on modified Murashige-Skoog medium, containing per 1 liter: 4 μmol nicotinic acid, 2.4 μmol pyridoxine hydrochloride, 1.2 μmol thiamine, 26.6 μmol glycine, 1.37 μmol glutamine, 1.8 μmol myo-inositol, 30 g of sucrose, 8 g of agar, 5.37 μmol α-naphtylacetic acid (NAA) and 0.5 μmol benzylaminopurine (BAP). Subcultivation was carried out every three weeks. Fourteen days before the bioassay, the callus tissue was transferred to the media without 6-benzylaminopurine (BAP). Biological activity was determined from the increase in fresh callus weight after four weeks of cultivation. Five replicates were prepared for each cytokinin concentration and the entire test was repeated twice. From the obtained data, the concentration with highest activity was selected for each compound tested. Relative activity of the compound at this concentration was calculated (Tab. 6). The activity obtained for 10^−4 M 6-benzylaminopurine (BAP) was postulated as 100%. The cytokinins to be tested were dissolved in dimethylsulfoxide (DMSO) and the solution brought up to 10^−3M with distilled water. This stock was further diluted in the respective media used for the biotest to concentrations ranging from 10^−8M to 10^−4M.

[8] = tested on: Amaranthus caudatus cotyledon/hypocotyl explants; experiment: Amaranthus bioassay, betacyanin content; type: in vivo; details: betacyanin content at the concentration with highest activity
Experimental: Standard Amaranthus bioassay was performed with several modifications. The seeds of Amaranthus caudatus var. atropurpurea were surface-sterilised in 10% N-chlorobenzenesulfonamide (w/v) for 10 min and washed 5 times in deionized water. They were placed in 14 cm Petri dishes containing paper tissues saturated with deionized water. After 72 h of cultivation at 25° C. in darkness, the roots of the seedlings were cut off. The explants, consisting of two cotyledons and hypocotyls, were placed in 5 cm Petri dishes on two layers of filter paper soaked in 1 ml of incubation medium containing 10 μmol NA2HPO4-KH2PO4, pH 6.8, 5 μmol tyrosine and the cytokinin to be tested. There were 20 explants per dish. The procedure was carried out under a green safe light in a darkroom. After a 48 h of incubation at 25° C. in darkness, betacyanin was extracted by freezing the explants in 4 ml […] acetic acid. The concentration of betacyanin was determined by comparing the absorbance at 537 nm and 620 nm as follows: ΔA=[…] nm-A620 nm. From the obtained data, the concentration with highest activity was selected for each compound tested. Relative activity of the compound at this concentration was calculated (Tab. 6). […] The values shown in table 8 are means of five replicates and the entire test was repeated twice. The cytokinins to be tested were dissolved in dimethylsulfoxide (DMSO) and the solution brought up to 10^-3M with distilled water. This stock was further diluted in the respective media used for the biotest to concentrations ranging from 10^-8M to 10^-4M.

[9] = tested on: Triticum aestivum cv. Hereward leaf tips; experiment: Retention of chlorophyll in excised wheat leaf tips; type: in vivo; details: chlorophyll retention at the concentration with highest activity
Experimental: Seeds of winter wheat, Triticum aestivum cv. Hereward, were washed under running water for 24 hours and then sown on vermiculite soaked with Knop's solution. They were placed in the grown chamber at 25° C. with a 16/8 h light period at 50 μmol.m^−2.s^−1. After 7 days, the first leaf was fully developed and the second leaf had started to grow. A tip section of the first leaf, approximately 35 mm long, was removed from 5 seedlings and trimmed slightly to a combined weight of 100 mg. The basal ends of the five leaf tips were placed in the wells of a microtiter polystyrene plate containing 150 μl of a cytokinin solution each. The entire plate was inserted into a plastic box lined with paper tissues soaked in distilled water to prevent leaf sections from drying out. After a 96 h incubation in the dark at 25° C., the leaves were removed and chlorophyll extracted by heating at 80° C. for 10 min in 5 ml of 80% ethanol (v/v). The sample volume was then restored to 5 ml by the addition of 80% ethanol (v/v). The absorbency of the extract was recorded at 665 nm. In addition, chlorophyll extracts from fresh leaves and leaf tips incubated in deionised water were measured. From the obtained data, the concentration with highest activity was selected for each compound tested. Relative activity of the compound at this concentration was calculated (Tab. 6). The activity obtained for 10^−4 M 6-benzylaminopurine (BAP) was postulated as 100%. The values shown are means of five replicates and the whole experiment was repeated twice. The cytokinins to be tested were dissolved in dimethylsulfoxide (DMSO) and the solution brought up to 10^−3M with distilled water. This stock was further diluted in distilled water to concentrations ranging from 10^−8M to 10^−4M.

[10] = tested on: HOS; experiment: Calcein AM cytotoxicity, HOS; type: cell-based
Excerpt: as §1, §4, §5

SMILES	IC50 [1] [µM]	IC50 ([2]; Homo sapiens, MCF7, 72 h) [µM]	IC50 [3] [µM]	IC50 ([4]; Homo sapiens, 72 h) [µM]	IC50 ([5]; Homo sapiens, HL-60, 72 h) [µM]	SENESCENT CELLS (%) HCA25 ([6]; passage 25) [%]	SENESCENT CELLS (%) HCA45 ([6]; passage 45) [%]	SENESCENT CELLS (%) HCA80 ([6]; passage 80) [%]	Activity (%) [10^−4 mol · l^−1 BAP = 100%] [7]	activity (%) [10^−5 mol · l^−1 BAP = 100%] [8]	IC50 ([4]; 72 hours, listed as 2,4,6triMeO BAP) [µM]	Activity (%) [10^−4 mol · l^−1 BAP = 100%] [9]	IC50 ([10]; 72 hours) [µM]	IC50 ([2]; 72 hours) [µM]	IC50 ([4]; 72 hours) [µM]	IC50 ([5]; 72 hours) [µM]	IC50 ([10]; Homo sapiens, HOS, 72 h) [µM]
Oc1ccc(CNc2ncnc3nc[nH]c23)cc1O [6-(3,4-dihydroxybenzylamino)purine]	> 167	> 167	> 167	> 167	> 167	5	4	29	4 (±1) %	8 (±3) %	–	–	–	–	–	–	–
COc1cc(OC)c(CNc2ncnc3nc[nH]c23)c(OC)c1 [6-(2,4,6-trimethoxybenzylamino)purine]	> 167	> 167	> 167	63.6	153	–	–	–	13 (±6) %	3 (±3) %	105	6 (±4) %	–	–	–	–	–
C/C(=C/CNc1ncnc2nc[nH]c12)CO [cis Z, reference compound]	–	–	–	–	–	–	–	–	–	–	–	–	> 167	> 167	> 167	> 167	–
Clc1ccc(CNc2ncnc3nc[nH]c23)cc1 [6-(4-chlorobenzylamino)purine]	> 167	> 167	–	> 167	> 167	–	–	–	64 (±8) %	35 (±7) %	–	64.5 (±13.5) %	–	–	–	–	> 167
COc1cc(CNc2ncnc3nc[nH]c23)ccc1O [6-(4-hydroxy-3-methoxybenzylamino)purine]	> 167	> 167	> 167	> 167	> 167	–	–	–	–	10 (±2) %	–	–	–	–	–	–	–
